In patent US5525627A, “Esters of acyl carnitines with long-chain aliphatic alcohols and pharmaceutical compositions containing same having antimycotic activity” (Sigma-Tau Industrie Farmaceutiche Riunite S.p.A., priority 1992, dated 1996):
“And” between values parts separate entries of the source, which are not always exact repeats. Equal entries are not always repeated.

What was measured:
[1] = test system: Saccharomyces cerevisiae (ATCC 7752); assay: MIC for yeast and yeast-like strains; type: cell-based; settings: ATCC7752, 48 hours, 35° C., read-out: Minimal Inhibitory Concentration (MIC)
How it was run: (§1)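 YNB + 0.15% asparagine + 1.0% glucose, 0.165 M MOPS buffer; Sabouraud broth overnight culture (Cryptococcus 48 h); final inoculum ~5.0×10^4 CFU/ml; fungal suspension and drug solution mixed 1:1 in microtiter wells.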

Candida albicans (562) = assay: MIC for yeast and yeast-like strains; type: cell-based; settings: 48 hours, 35° C., read-out: Minimal Inhibitory Concentration (MIC)
How it was run: as §1

[2] = test system: Candida tropicalis (5705); assay: MIC for yeast and yeast-like strains; type: cell-based; settings: 48 hours, 35° C., read-out: Minimal Inhibitory Concentration (MIC)
How it was run: as §1

Candida albicans (A 54) = assay: MIC for yeast and yeast-like strains; type: cell-based; settings: 48 hours, 35° C., read-out: Minimal Inhibitory Concentration (MIC)
How it was run: as §1

[3] = test system: Torulopsis candida (D.S.); assay: MIC for yeast and yeast-like strains; type: cell-based; settings: Suzukiozyma candida; 48 hours, 35° C.; read-out: Minimal Inhibitory Concentration (MIC)
How it was run: as §1

[4] = test system: Cryptococcus neoformans (4711); assay: MIC for yeast and yeast-like strains; type: cell-based; settings: 48 hours, 35° C., read-out: Minimal Inhibitory Concentration (MIC)
How it was run: as §1

Candida krusei (ISS 1) = assay: MIC for yeast and yeast-like strains; type: cell-based; settings: Pichia kudriavzevii; 48 hours, 35° C.; read-out: Minimal Inhibitory Concentration (MIC)
How it was run: as §1

Candida albicans (Ca 2) = assay: MIC for yeast and yeast-like strains; type: cell-based; settings: 48 hours, 35° C., read-out: Minimal Inhibitory Concentration (MIC)
How it was run: as §1

[5] = test system: spleen, thymus and splenocytes; assay: Test 3: body, spleen and thymus weight and splenocyte concentration; type: in vivo, mice (male B6 D2 F1); settings: 100 mg/kg/day oral, 5 consecutive days
Description: Test 3: Evaluation of the effect of repeated oral administrations of ST 722 on the body, spleen and thymus weight, and on the splenocyte concentration in mice.
(§2) Male B6 D2 F1 mice (C. River) aged 10 weeks (5 animals each group) were orally treated with the substance ST 722 at the dose of 100 mg/kg/day for 5 consecutive days. Twenty-four hours after the last administration, the animals were sacrificed, the organs removed and weighed, and the splenocyte number determined.

[6] = test system: antibody-producer B lymphocytes (spleen); assay: Test 1: primary antibody production (Jerne test) in spleen of SRBC immunized mice; type: in vivo, mice (male B6 D2F1)
Description: Test 1: Evaluation of the "in vitro-ex vivo" effect of repeated oral administrations of ST 722 on the primary antibody production (Jerne test) in the spleen of SRBC (Sheep Red Blood Cells) immunized mice.
Male B6 D2F1 mice (C. River) aged 8 weeks (6 animals each group) were utilized.
The substance (ST 722) was administered per os at the dose of 100 mg/kg/day from day -2 through day +2 (immunization at day 0). The animals were immunized by intraperitoneal route with a concentration of 1.0×10^8 cells/mouse in 0.2 ml of sterile saline.
Five days later, spleens to be submitted to teasing process were removed from the animals sacrificed by cervical dislocation. After standardization at 1.0×10^7 cells/ml. the splenocytes (0.1 ml) were mixed with warm agar-Hank's (2 ml) and 10% SRBC in PBS (0.2 ml) and seeded in Petri dishes (samples tested in triplicates) and incubated at 37° C. for 60 min.
After addition of complement (2 ml of guinea pig serum diluted 1:10 in Tris buffer), samples were further incubated at 37° C. for 30 min. To block the haemolysis reaction, the Petri dishes were cooled at 4° C. and the haemolysis plaques were counted.
The antibody response to SRBC is expressed as number of plaque forming cells (PFC) per 1.0×10^6 splenocytes as well as per spleen.

C. albicans ISS 1 = assay: Experimental subcutaneous infection with Candida albicans in mice; type: in vivo, Candida albicans in mice (male CD1 outbred)
Description: Male CD1 outbred mice (IFFA Credo) aged 8 weeks were used (4 animals per group).
A pathogenic strain of Candida was used, namely C. albicans ISS 1.
The infected animals were treated with ST 722 dissolved in saline, and Miconazole diluted in saline from a stock solution containing 1% Dimethyl Formamide.
From an overnight broth culture of C. albicans in Sabouraud broth, a fungal suspension was prepared in sterile saline containing 5.0×10^5 cells/mi. An inoculum of 0.5 ml of this suspension was injected subcutaneously into the abdominal wall of each animal.
The compounds were then administered by subcutaneous injection in the same area of the fungal challenge at the dose of 50 mcg (in 0.2 ml of saline) immediately after the inoculum and following 48 and 96 hours (150 total mcg per animal).
Then, 48 hours following the last treatment (6 days after the challenge with Candida), the animals were sacrificed, and the abdominal wall as well as the peritoneum were dissected out.
The excised tissues were then homogenized in 5 ml of sterile saline with a Potter-Elvehjem tissue grinder. The resulting suspensions, appropriately diluted, where plated onto Petri dishes containing a selective agar medium (BIGGY agar), which allows to easily detect the yeast Colony Forming Units (CFU/ml).
The number of colonies scored in a series of dilutions for each single sample consents to calculate the number of yeast cells present in the infected tissue sample as follows: [formula] Where Zi is the number of dilutions performed, Ni is the number of plates prepared for each dilution, and Ci is the total number of yeast cells scored in each dilution.

peritoneal macrophages = assay: Test 4: peritoneal macrophage number in mice; type: in vivo, mice (male B6 D2 F1); settings: 100 mg/kg/day oral, 5 consecutive days
Description: Test 4: Evaluation of the effect of repeated oral administrations of ST 722 on the peritoneal macrophage number in mice.
as §2, with “(6” for “(5”, “peritoneal exudate cells (PEC) collected” for “organs removed and weighed,”, “macrophage” for “splenocyte”

[7] = 100 mg/kg/day per os, day -2 through day +2, x ± S.E.

For CCCCCCCCCCCOC(=O)C[C@H](C[N+](C)(C)C)OC(=O)CC(C)C [ST 722, isovaleryl-L-carnitine undecyl ester chloride], the MIC [1] was 3.12 µg/mL, the MIC (Candida albicans (562)) was 3.12 µg/mL and the MIC [2] was 3.12 µg/mL. It also gave an MIC (Candida albicans (A 54)) of 3.12 µg/mL, an MIC [3] of 6.25 µg/mL and an MIC [4] of 1.56 µg/mL. The MIC (Candida krusei (ISS 1)) was 3.12 µg/mL, the MIC (Candida albicans (Ca 2)) was 1.56 µg/mL and the “specific immunotoxic effects on the considered parameters” value [5] was “lack of specific immunotoxic effects”. For the same molecule, the Body weight ([5]; x ± S.E.) was 26.50 ± 0.53 g, the Spleen weight ([5]; x ± S.E.) was 73.25 ± 3.84 mg and the Thymus weight ([5]; x ± S.E.) was 38.80 ± 3.01 mg. The “PFC/10^6 cells” value [6, 7] was 261 ± 34 PFC/10^6 cells, the PFC/spleen [6, 7] was 44440 ± 6087 PFC/spleen and the “PFC number after antigenic challenge” value ([6]; 5 consecutive days oral) was “did not cause a statistically significant modification in PFC number”. The CFU/mouse (C. albicans ISS 1; individual samples 1-4, 50 mcg s.c. at 0, 48 and 96 hours (150 total mcg per animal)) was “sterile and 1.36 × 10^2 CFU/mouse”, the “effect on the infection with Candida” value (C. albicans ISS 1; s.c., 150 total mcg per animal) was “substantially inhibits the infection with Candida” and the “sterile samples out of 4” value (C. albicans ISS 1; s.c., 150 total mcg per animal) was 3 samples. The “toxic effect in PEC macrophage population” value (peritoneal macrophages) was “No toxic effect has been observed”, the “PEC Mo” value (peritoneal macrophages; 6 pooled samples) was 63% and the Body weight (peritoneal macrophages; ± S.E., 6 animals) was 28.13 ± 1.30 g. For the same molecule, the “increase in the peritoneal macrophages number” value (peritoneal macrophages; versus control) was “about 60%”.
